Laboratory results: US20240043404A1 (AbbVie Inc., priority 2009, published 2024)

The molecules below were run on RS4;11 cells (assay: RS4;11 cell viability assay (CellTiter Glo)). Conditions: Homo sapiens, RS4-11, 48 h, 50,000 cells per well, 10% human serum, 48 hours; read-out: RS4; 11 EC50 Values.
Assay type: cell-based, human
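Also: acute lymphoblastic leukemia line RS4,11, EC50 derived from percentage of viable cells after treatment relative to untreated controls, cell killing taken as a measure of Bcl-2 inhibition.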
Procedure: The acute lymphoblastic leukemia (ALL) cell line RS4;11 was used as the primary human cell line to assess the cellular activity of Bcl-2 selective agents in vitro and their efficacy in vivo.
Cell cytotoxicity EC50 values were assessed using CellTiter Glo (Promega) according to the manufacturer's recommendations. The EC50 values were determined as a percentage of viable cells following treatment compared to the untreated control cells.

Row | SMILES | EC50 [nM]
1 | CCN1CCOCC1COc1ccc(S(=O)(=O)NC(=O)c2ccc(N3CCN(CC4=C(c5ccc(Cl)cc5)CC(C)(C)CC4)CC3)cc2Oc2cnc3[nH]ccc3c2)cc1[N+](=O)[O-] (stereo not shown) [Example 103, 4-(4-{[2-(4-chlorophenyl)-4,4-dimethylcyclohex-1-en-1-yl]methyl}piperazin-1-yl)-N-({4-[(4-ethylmorpholin-3-yl)methoxy]-3-nitrophenyl}sulfonyl)-2-(1H-pyrrolo[2,3-b]pyridin-5-yloxy)benzamide] | 39.2
2 | CC1(C)CCC(CN2CCN(c3ccc(C(=O)NS(=O)(=O)c4ccc(OCC5COCCN5C5CCOCC5)c([N+](=O)[O-])c4)c(Oc4cnc5[nH]ccc5c4)c3)CC2)=C(c2ccc(Cl)cc2)C1 (stereo not shown) [Example 104, 4-(4-{[2-(4-chlorophenyl)-4,4-dimethylcyclohex-1-en-1-yl]methyl}piperazin-1-yl)-N-({3-nitro-4-[(4-tetrahydro-2H-pyran-4-ylmorpholin-3-yl)methoxy]phenyl}sulfonyl)-2-(1H-pyrrolo[2,3-b]pyridin-5-yloxy)benzamide] | 71.2
3 | CC1(C)CCC(CN2CCN(c3ccc(C(=O)NS(=O)(=O)c4ccc(N[C@H]5CCCN(C6CCOCC6)C5)c([N+](=O)[O-])c4)c(Oc4cnc5[nH]ccc5c4)c3)CC2)=C(c2ccc(Cl)cc2)C1 [Example 105, 4-(4-{[2-(4-chlorophenyl)-4,4-dimethylcyclohex-1-en-1-yl]methyl}piperazin-1-yl)-N-[(3-nitro-4-{[(3S)-1-tetrahydro-2H-pyran-4-ylpiperidin-3-yl]amino}phenyl)sulfonyl]-2-(1H-pyrrolo[2,3-b]pyridin-5-yloxy)benzamide] | 53.6
4 | CC1(C)CCC(CN2CCN(c3ccc(C(=O)NS(=O)(=O)c4cnc(NCC5CCOCC5)c(C#N)c4)c(Oc4cnc5[nH]ccc5c4)c3)CC2)=C(c2ccc(Cl)cc2)C1 [Example 106, 4-(4-{[2-(4-chlorophenyl)-4,4-dimethylcyclohex-1-en-1-yl]methyl}piperazin-1-yl)-N-({5-cyano-6-[(tetrahydro-2H-pyran-4-ylmethyl)amino]pyridin-3-yl}sulfonyl)-2-(1H-pyrrolo[2,3-b]pyridin-5-yloxy)benzamide] | 826
5 | CC1(C)CCC(CN2CCN(c3ccc(C(=O)NS(=O)(=O)c4ccc(NCC5(N)CCOCC5)c([N+](=O)[O-])c4)c(Oc4cnc5[nH]ccc5c4)c3)CC2)=C(c2ccc(Cl)cc2)C1 [Example 108, N-[(4-{[(4-aminotetrahydro-2H-pyran-4-yl)methyl]amino}-3-nitrophenyl)sulfonyl]-4-(4-{[2-(4-chlorophenyl)-4,4-dimethylcyclohex-1-en-1-yl]methyl}piperazin-1-yl)-2-(1H-pyrrolo[2,3-b]pyridin-5-yloxy)benzamide] | 24.1
6 | CC1(C)CCC(CN2CCN(c3ccc(C(=O)NS(=O)(=O)c4cnc(N[C@H]5CC[C@H](N6CCOCC6)CC5)c(C#N)c4)c(Oc4cnc5[nH]ccc5c4)c3)CC2)=C(c2ccc(Cl)cc2)C1 [Example 109, Trans-4-(4-{[2-(4-chlorophenyl)-4,4-dimethylcyclohex-1-en-1-yl]methyl}piperazin-1-yl)-N-({5-cyano-6-[(4-morpholin-4-ylcyclohexyl)amino]pyridin-3-yl}sulfonyl)-2-(1H-pyrrolo[2,3-b]pyridin-5-yloxy)benzamide] | 183
7 | CC1(C)CCC(CN2CCN(c3ccc(C(=O)NS(=O)(=O)c4ccc(NCC5CCOCC5)c(C#N)c4)c(Oc4cnc5[nH]ccc5c4)c3)CC2)=C(c2ccc(Cl)cc2)C1 [Example 110, 4-(4-{[2-(4-chlorophenyl)-4,4-dimethylcyclohex-1-en-1-yl]methyl}piperazin-1-yl)-N-({3-cyano-4-[(tetrahydro-2H-pyran-4-ylmethyl)amino]phenyl}sulfonyl)-2-(1H-pyrrolo[2,3-b]pyridin-5-yloxy)benzamide] | 536
8 | CC1(C)CCC(CN2CCN(c3ccc(C(=O)NS(=O)(=O)c4ccc(N[C@H]5CC[C@@H](N6CCOCC6)C5)c([N+](=O)[O-])c4)c(Oc4cnc5[nH]ccc5c4)c3)CC2)=C(c2ccc(Cl)cc2)C1 [Example 111, 4-(4-{[2-(4-chlorophenyl)-4,4-dimethylcyclohex-1-en-1-yl]methyl}piperazin-1-yl)-N-[(4-{[(1S,3R)-3-morpholin-4-ylcyclopentyl]amino)-3-nitrophenyl)sulfonyl]-2-(1H-pyrrolo[2,3-b]pyridin-5-yloxy)benzamide] | 14.5
9 | CC1(C)CCC(CN2CCN(c3ccc(C(=O)NS(=O)(=O)c4ccc(N[C@@H]5CC[C@H](N6CCOCC6)C5)c([N+](=O)[O-])c4)c(Oc4cnc5[nH]ccc5c4)c3)CC2)=C(c2ccc(Cl)cc2)C1 [Example 112, 4-(4-{[2-(4-chlorophenyl)-4,4-dimethylcyclohex-1-en-1-yl]methyl}piperazin-1-yl)-N-[(4-{[(1R,3S)-3-morpholin-4-ylcyclopentyl]amino}-3-nitrophenyl)sulfonyl]-2-(1H-pyrrolo[2,3-b]pyridin-5-yloxy)benzamide] | 20.6
10 | CC1(C)CCC(CN2CCN(c3ccc(C(=O)NS(=O)(=O)c4ccc(NCC5CNCCO5)c([N+](=O)[O-])c4)c(Oc4cnc5[nH]ccc5c4)c3)CC2)=C(c2ccc(Cl)cc2)C1 (stereo not shown) [Example 113, 4-(4-{[2-(4-chlorophenyl)-4,4-dimethylcyclohex-1-en-1-yl]methyl}piperazin-1-yl)-N-({4-[(morpholin-2-ylmethyl)amino]-3-nitrophenyl}sulfonyl)-2-(1H-pyrrolo[2,3-b]pyridin-5-yloxy)benzamide] | 1.36
11 | CC1(C)CCC(CN2CCN(c3ccc(C(=O)NS(=O)(=O)c4ccc(NCC5CCOC5)c([N+](=O)[O-])c4)c(Oc4cnc5[nH]ccc5c4)c3)CC2)=C(c2ccc(Cl)cc2)C1 (stereo not shown) [Example 114, 4-(4-{[2-(4-chlorophenyl)-4,4-dimethylcyclohex-1-en-1-yl]methyl}piperazin-1-yl)-N-({3-nitro-4-[(tetrahydrofuran-3-ylmethyl)amino]phenyl}sulfonyl)-2-(1H-pyrrolo[2,3-b]pyridin-5-yloxy)benzamide] | 10.8
12 | CC1(C)CCC(CN2CCN(c3ccc(C(=O)NS(=O)(=O)c4ccc(NC5CN(C6CCOCC6)C5)c([N+](=O)[O-])c4)c(Oc4cnc5[nH]ccc5c4)c3)CC2)=C(c2ccc(Cl)cc2)C1 [Example 116, 4-(4-{[2-(4-chlorophenyl)-4,4-dimethylcyclohex-1-en-1-yl]methyl}piperazin-1-yl)-N-({3-nitro-4-[(1-tetrahydro-2H-pyran-4-ylazetidin-3-yl)amino]phenyl}sulfonyl)-2-(1H-pyrrolo[2,3-b]pyridin-5-yloxy)benzamide] | 28.5
13 | CC1(C)CCC(CN2CCN(c3ccc(C(=O)NS(=O)(=O)c4ccc(NC5CN(C6CCOC6)C5)c([N+](=O)[O-])c4)c(Oc4cnc5[nH]ccc5c4)c3)CC2)=C(c2ccc(Cl)cc2)C1 (stereo not shown) [Example 117, 4-(4-{[2-(4-chlorophenyl)-4,4-dimethylcyclohex-1-en-1-yl]methyl}piperazin-1-yl)-N-({3-nitro-4-[(1-tetrahydrofuran-3-ylazetidin-3-yl)amino]phenyl}sulfonyl)-2-(1H-pyrrolo[2,3-b]pyridin-5-yloxy)benzamide] | 18.2
14 | CC1(C)CCC(CN2CCN(c3ccc(C(=O)NS(=O)(=O)c4ccc(NC[C@H]5CCN(C6CCOCC6)C5)c([N+](=O)[O-])c4)c(Oc4cnc5[nH]ccc5c4)c3)CC2)=C(c2ccc(Cl)cc2)C1 [Example 118, 4-(4-{[2-(4-chlorophenyl)-4,4-dimethylcyclohex-1-en-1-yl]methyl}piperazin-1-yl)-N-{[3-nitro-4-({[(3R)-1-tetrahydro-2H-pyran-4-ylpyrrolidin-3-yl]methyl}amino)phenyl]sulfonyl}-2-(1H-pyrrolo[2,3-b]pyridin-5-yloxy)benzamide] | 12.9
15 | CC1(C)CCC(c2ccc(Cl)cc2)=C(CN2CCN(c3ccc(C(=O)NS(=O)(=O)c4ccc(OCC5(F)CCOCC5)c([N+](=O)[O-])c4)c(Oc4cnc5[nH]ccc5c4)c3)CC2)C1 [Example 119, 4-(4-{[2-(4-chlorophenyl)-5,5-dimethylcyclohex-1-en-1-yl]methyl}piperazin-1-yl)-N-({4-[(4-fluorotetrahydro-2H-pyran-4-yl)methoxy]-3-nitrophenyl}sulfonyl)-2-(1H-pyrrolo[2,3-b]pyridin-5-yloxy)benzamide] | 11.4
16 | CO[C@H]1CC[C@@H](COc2ccc(S(=O)(=O)NC(=O)c3ccc(N4CCN(CC5=C(c6ccc(Cl)cc6)CC(C)(C)CC5)CC4)cc3Oc3cnc4[nH]ccc4c3)cc2[N+](=O)[O-])CC1 [Example 121, 2-(1H-pyrrolo[2,3-b]pyridin-5-yloxy)-4-(4-((2-(4-chlorophenyl)-4,4-dimethylcyclohex-1-enyl)methyl)piperazin-1-yl)-N-(4-((cis-4-methoxycyclohexyl)methoxy)-3-nitrophenylsulfonyl)benzamide] | 59.7
17 | CC1(C)CCC(CN2CCN(c3ccc(C(=O)NS(=O)(=O)c4ccc(N[C@H]5CC[C@@H](NC6CC6)CC5)c([N+](=O)[O-])c4)c(Oc4cnc5[nH]ccc5c4)c3)CC2)=C(c2ccc(Cl)cc2)C1 [Example 122, Cis-4-(4-{[2-(4-chlorophenyl)-4,4-dimethylcyclohex-1-en-1-yl]methyl}piperazin-1-yl)-N-[(4-{[4-(cyclopropylamino)cyclohexyl]amino}-3-nitrophenyl)sulfonyl]-2-(1H-pyrrolo[2,3-b]pyridin-5-yloxy)benzamide] | 1.85
18 | CC1(C)CCC(CN2CCN(c3ccc(C(=O)NS(=O)(=O)c4ccc(N[C@H]5CC[C@H](NC6CCOCC6)CC5)c([N+](=O)[O-])c4)c(Oc4cnc5[nH]ccc5c4)c3)CC2)=C(c2ccc(Cl)cc2)C1 [Example 123, Trans-4-(4-{[2-(4-chlorophenyl)-4,4-dimethylcyclohex-1-en-1-yl]methyl}piperazin-1-yl)-N-[(3-nitro-4-{[4-(tetrahydro-2H-pyran-4-ylamino)cyclohexyl]amino}phenyl)sulfonyl]-2-(1H-pyrrolo[2,3-b]pyridin-5-yloxy)benzamide] | 3.33
19 | CC1(C)CCC(CN2CCN(c3ccc(C(=O)NS(=O)(=O)c4cnc(O[C@H]5CC[C@H](N6CCOCC6)CC5)c(Br)c4)c(Oc4cnc5[nH]ccc5c4)c3)CC2)=C(c2ccc(Cl)cc2)C1 [Example 124, Trans-N-({5-bromo-6-[(4-morpholin-4-ylcyclohexyl)oxy]pyridin-3-yl}sulfonyl)-4-(4-{[2-(4-chlorophenyl)-4,4-dimethylcyclohex-1-en-1-yl]methyl}piperazin-1-yl)-2-(1H-pyrrolo[2,3-b]pyridin-5-yloxy)benzamide] | 212
